This note sets out measurements from patent US20210205253A1, “Use Of Stearic Acid For Preventing Or Treating Pulmonary Fibrosis” (THE ASAN FOUNDATION, priority 2018, published 2021).

The structures appear in SMILES notation.

The test system of test [1] is pulmonary fibrosis induced by bleomycin. Briefly: Stearic acid in bleomycin-induced pulmonary fibrosis animal model. It is filed as in vivo, mice (C57BL6J). The text has this:
Based on the results of Example 2-2, the present inventors attempted to verify the anti-fibrotic effect of stearic acid in an animal model in which pulmonary fibrosis was induced by bleomycin. For this purpose, 6-week-old mice (C57BL6J) were classified into the following 4 groups of 4 or 5 mice, respectively: groups treated with (1) intratracheal saline+vehicle, (2) intratracheal saline+stearic acid, (3) intratracheal 4 units/kg bleomycin+vehicle, and (4) intratracheal bleomycin+stearic acid. Subsequently, mice were anesthetized with 50 mg/kg […] and 5 mg/kg Rompun, followed by infusion of bleomycin and saline into the trachea. The mice were treated with 3 mg/kg stearic acid using oral gavage (zonde) three times a week for 3 weeks. Thereafter, on day 21, lung tissues and blood were collected from the mice and used for the study.

The test system is the same in test [2]. Briefly: Combined stearic acid and pirfenidone in bleomycin pulmonary fibrosis animal model. It is filed as in vivo, mice (C57BL/6J). The following applies: 3 mg/kg stearic acid, 300 mg/kg pirfenidone oral once every 2 days for 2 weeks; versus bleomycin group. As for the experimental part: In addition to the results of the above examples, the present inventors sought to confirm the anti-fibrotic effect by the combined treatment of stearic acid and pirfenidone in a pulmonary fibrosis animal model. For this purpose, 8-week-old mice (C57BL/6J) were anesthetized with 50 mg/kg […] and 5 mg/kg Rompun, followed by injection of bleomycin and saline into the trachea. From 7 days after administration of bleomycin, 3 mg/kg stearic acid, 300 mg/kg pirfenidone or the two drugs were orally administered at the same time once every 2 days for 2 weeks, and changes in mouse body weight were measured up to 21 days after administration of bleomycin.

Test [3] deals with reactive oxygen species in MRC-5 cells. Briefly: ROS measurement (DCF-DA, FACS). It is filed as cell-based, human. Particulars: 40 μM stearic acid pre-treatment 16 h, TGF-β1 1 h. As for the experimental part:
The present inventors pre-treated a human pulmonary fibroblast cell line MRC-5 with 40 μM stearic acid for 16 hours, treated the MRC-5 cells with TGF-β1 for 1 hour, and then examined the expression levels of p-Smad2/3 and Smad7 in order to elucidate the anti-fibrotic mechanism of stearic acid in human pulmonary fibroblasts (FIGS. 12A and 12B). Further, to investigate the effect of stearic acid on the production of reactive oxygen species (ROS), MRC-5 cells were pre-treated with 40 μM stearic acid for 16 hours, and cells treated with TGF-β1 for 1 hour were stained with DCF-DA and analyzed by FACS (FIG. 12C). Furthermore, MRC-5 cells were pre-treated with 5 mM N-acetylcysteine (NAC), which is an antioxidant, for 1 hour and treated with TGF-β1 for 1 hour, and then the expression of p-Smad2/3 was examined (FIG. 12D).

Test [4] deals with human pulmonary epithelial cells (BEAS-2B). Briefly: Cell viability (MTT) of human pulmonary epithelial cells. Type of test: cell-based. Particulars: stearic acid 40 uM/mL + TGF-β 5 ng/mL, 24 h, versus TGF-β alone. How it is done: After epithelial cells and fibroblasts were aliquoted into 6-well plates at 2×10^4 cells/well and a stabilization time was imparted for 24 hours, and 15 hours after deficiency, cells were treated with stearic acid (40 uM/mL), TGF-β (5 ng/mL), and stearic acid (40 uM/mL)+TGF-β (5 ng/mL) in this order. After the cells were cultured in an incubator for 24 hours after the treatment, the next-step experiment was performed.
After a 24-hour cell stimulation by the method in Example 1-3 was completed, the medium of epithelial cells and fibroblasts was replaced with a general culture medium, 10 μl of an MTT solution (20 mg/ml) was further added, and then the outside of the plate was wrapped with aluminum foil and cells were cultured in an incubator for 2 hours. […] After 2 hours, cell activation was measured at an absorbance value of 595 nm using an ELISA reader.
For this purpose, after each culture (BEGM(Lonza) in the case of MRC-5, and BMEM (ATCC) in the case of BEAS-2B) of human pulmonary fibroblasts (MRC-5; ATCC® CCL171™) and human pulmonary epithelial cells (BEAS-2B; ATCC® CRL9609™) was treated with stearic acid (40 uM/mL), TGF-β (5 ng/mL; Sigma), or stearic acid (40 uM/mL)+TGF-β (5 ng/mL) by the method described in Example 1-3 for 24 hours, cell viability was measured by the method in Example 1-4. […]

Where [5] appears, read: day 21, stearic acid 3 mg/kg oral.

Regarding `CCCCCCCCCCCCCCCCCC(=O)O` [stearic acid], the “reduction in body weight due to bleomycin” value in test [1] (day 7, stearic acid 3 mg/kg oral gavage three times a week) was “significantly inhibited”. In test [1] (setting [5]), the “expression of p-Smad2/3 in lung tissues” value is reported as “inhibition of an increase in expression of p-Smad2/3” and the “expression of α-SMA in lung tissues” value is “inhibiting an increase in expression of α-SMA”. For the same compound, the “histopathological characteristics of pulmonary fibrosis (H&E)” value in test [1] (day 21, stearic acid 3 mg/kg oral, 3 weeks) was “remarkably reduced”. For the same compound, the accumulation of hydroxyproline result in test [1] (lung tissue, day 21, stearic acid 3 mg/kg oral) is given as “inhibiting the accumulation of hydroxyproline”. Besides, in test [1] (serum, day 21, stearic acid 3 mg/kg oral), the “blood level of TGF-β1” value was “inhibiting an increase in the blood level of TGF-β1”. Moreover, the level of hydroxyproline result in test [2] was “partially reduced”. Besides, in test [3], the “level of reactive oxygen species induced by TGF-β1” value is recorded as “remarkably reduced”. Besides, the “cell viability of pulmonary epithelial cells” value in test [4] is on record as “cell viability increased”.
